{"source": "paper PMC7366380", "about": "“Discovery of a Potent and Selective Covalent Inhibitor and Activity-Based Probe for the Deubiquitylating Enzyme UCHL1, with Antifibrotic Activity” (Journal of the American Chemical Society, 2020)", "key": {"UCHL1": {"biological_target": "T1, UCHL1 (Homo sapiens, UniProt P09936)", "T1 sequence (P09936 1-223)": "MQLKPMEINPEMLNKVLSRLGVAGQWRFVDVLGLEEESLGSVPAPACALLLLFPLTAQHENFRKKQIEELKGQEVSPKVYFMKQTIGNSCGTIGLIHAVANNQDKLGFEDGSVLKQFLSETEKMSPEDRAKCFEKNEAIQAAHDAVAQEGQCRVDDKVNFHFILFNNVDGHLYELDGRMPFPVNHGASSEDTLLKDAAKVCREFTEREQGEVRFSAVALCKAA", "assay": "In-cell proteome-wide competitive ABPP (quantitative chemical proteomics), HEK293: UCHL1", "conditions": "for Log2 reporter intensity values: UCHL1: DMSO substract (FC); for Log2 reporter intensity values: UCHL1 / Log2 reporter intensity values: replicates A-C; for UCHL1 response in proteome-wide competitive ABPP: HEK293, compound 60 min, then 2 (20 nM) 10 min; for Log2 reporter intensity values: UCHL1, DMSO subtracted"}, "USP30": {"biological_target": "T2, USP30 (Homo sapiens, UniProt Q70CQ3)", "T2 sequence (Q70CQ3 1-517)": "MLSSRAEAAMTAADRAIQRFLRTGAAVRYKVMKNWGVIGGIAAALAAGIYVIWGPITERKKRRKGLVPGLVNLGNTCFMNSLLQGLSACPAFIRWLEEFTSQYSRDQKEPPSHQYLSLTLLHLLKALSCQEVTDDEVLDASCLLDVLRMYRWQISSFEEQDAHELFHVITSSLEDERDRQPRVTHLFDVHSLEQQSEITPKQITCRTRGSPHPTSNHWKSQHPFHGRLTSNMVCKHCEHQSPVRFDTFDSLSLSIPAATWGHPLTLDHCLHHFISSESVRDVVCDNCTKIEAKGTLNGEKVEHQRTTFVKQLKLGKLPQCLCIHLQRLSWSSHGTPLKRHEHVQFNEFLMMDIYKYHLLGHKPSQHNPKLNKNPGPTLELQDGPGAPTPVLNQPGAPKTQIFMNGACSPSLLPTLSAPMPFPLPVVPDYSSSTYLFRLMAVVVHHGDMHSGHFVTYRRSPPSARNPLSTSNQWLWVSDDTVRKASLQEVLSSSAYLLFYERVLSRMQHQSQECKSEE", "assay": "biochemical"}, "Cezanne1": {"biological_target": "T3, Cezanne1 (Homo sapiens, UniProt Q6GQQ9)", "T3 sequence (Q6GQQ9 1-843)": "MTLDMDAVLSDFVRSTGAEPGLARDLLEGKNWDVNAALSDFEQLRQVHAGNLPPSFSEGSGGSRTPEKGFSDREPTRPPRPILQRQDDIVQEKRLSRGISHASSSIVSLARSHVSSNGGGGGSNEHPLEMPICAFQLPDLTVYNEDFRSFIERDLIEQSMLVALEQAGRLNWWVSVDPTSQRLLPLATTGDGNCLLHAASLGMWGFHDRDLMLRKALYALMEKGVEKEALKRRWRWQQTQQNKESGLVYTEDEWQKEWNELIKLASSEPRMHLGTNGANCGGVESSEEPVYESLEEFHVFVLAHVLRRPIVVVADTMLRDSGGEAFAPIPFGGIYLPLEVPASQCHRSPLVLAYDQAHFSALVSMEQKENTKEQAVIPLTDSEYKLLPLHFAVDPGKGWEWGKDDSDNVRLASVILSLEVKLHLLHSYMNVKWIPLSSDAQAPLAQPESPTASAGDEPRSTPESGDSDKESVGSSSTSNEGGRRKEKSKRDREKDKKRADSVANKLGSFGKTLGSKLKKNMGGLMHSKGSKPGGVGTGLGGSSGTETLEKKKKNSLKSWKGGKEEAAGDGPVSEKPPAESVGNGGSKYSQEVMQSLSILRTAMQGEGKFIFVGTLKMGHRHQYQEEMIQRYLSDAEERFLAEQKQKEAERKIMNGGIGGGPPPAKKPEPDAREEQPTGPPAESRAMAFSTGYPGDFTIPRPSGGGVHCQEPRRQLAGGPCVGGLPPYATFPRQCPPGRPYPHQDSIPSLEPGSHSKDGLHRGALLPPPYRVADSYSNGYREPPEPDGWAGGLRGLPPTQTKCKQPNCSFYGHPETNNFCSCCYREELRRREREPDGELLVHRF", "assay": "Biochemical DUB selectivity profiling assay: Cezanne1", "conditions": "Ub-Lys-TAMRA 50 nM, buffer B; read-out: Biochemical IC50 range, Cezanne1", "protocol": "DUB Assay Substrate Substrate\nBuffer Concentration (nM) […]\nSepharose® 4B resin (GE Healthcare).\n10 kDa molecular weight cut-off (MWCO)).\nFractions containing protein\nProtein concentration was […]\nreaction volume of 21 μL. […]\ncompound (final concentration 5 nM).\nIC50 values were determined\nBiochemical DUB selectivity profiling assays […]\nin 40 µL total reaction volume."}}, "note": "Values joined by “and” are separate entries in the source; they are usually repeats but may differ in a detail not shown here. Equal entries are not always repeated."}
{"smiles": "N#CN1CCC[C@H]1C(=O)N1CCc2c(-c3c[nH]c4ncccc34)cccc21", "note": "[Compound 1]", "values": [{"measurement": "Log2 reporter intensity values: UCHL1", "setting": "UCHL1; 1 at 1 μM, competition with ABP 2", "result": "1.266 and 1.307 and 1.157"}, {"measurement": "Log2 reporter intensity values: UCHL1", "setting": "UCHL1; 1 at 4 μM, competition with ABP 2", "result": "0.9345 and 0.8874 and 0.9379"}, {"measurement": "UCHL1 response in proteome-wide competitive ABPP", "setting": "UCHL1", "result": "responds strongly"}, {"measurement": "Log2 reporter intensity values", "setting": "UCHL1; 1_1 μM", "result": "0.2661 and 0.3067 and 0.157"}, {"measurement": "Log2 reporter intensity values", "setting": "UCHL1; 1_4 μM", "result": "-0.06576 and -0.1128 and -0.06231"}, {"measurement": "Log2 reporter intensity values", "setting": "UCHL1; 1 at 1 μM", "result": "0.3407 and 0.3862 and 0.2107"}, {"measurement": "Log2 reporter intensity values", "setting": "UCHL1; 1 at 4 μM", "result": "-0.09779 and -0.1723 and -0.09247"}, {"measurement": "IC50", "setting": "USP30", "result": "1 to 10", "unit": "µM"}, {"measurement": "IC50", "setting": "Cezanne1", "result": "> 10", "unit": "µM"}]}
{"smiles": "C#Cc1cnc2[nH]cc(-c3cccc4c3CCN4C(=O)[C@@H]3CCCN3C#N)c2c1", "note": "[Compound 2]", "values": [{"measurement": "Log2 reporter intensity values: UCHL1", "setting": "UCHL1; 20 nM ABP 2 alone", "result": "6.229 and 5.741 and 6.184"}, {"measurement": "Log2 reporter intensity values", "setting": "UCHL1; 20 nM ABP 2", "result": "2.639 and 2.521 and 2.629 and 5.2291 and 4.741 and 5.184"}, {"measurement": "IC50", "setting": "Cezanne1", "result": "> 10", "unit": "µM"}]}
{"smiles": "N#CN1CCC[C@@H]1C(=O)N1CCc2c(-c3c[nH]c4ncccc34)cccc21", "note": "[Compound 3]", "values": [{"measurement": "Log2 reporter intensity values: UCHL1", "setting": "UCHL1; 3 at 1 μM, competition with ABP 2", "result": "5.152 and 5.416 and 5.469"}, {"measurement": "Log2 reporter intensity values: UCHL1", "setting": "UCHL1; 3 at 4 μM, competition with ABP 2", "result": "5.424 and 5.76 and 5.633"}, {"measurement": "UCHL1 response in proteome-wide competitive ABPP", "setting": "UCHL1", "result": "does not respond"}, {"measurement": "Log2 reporter intensity values", "setting": "UCHL1; 3_1 μM", "result": "4.152 and 4.416 and 4.468"}, {"measurement": "Log2 reporter intensity values", "setting": "UCHL1; 3_4 μM", "result": "4.423 and 4.76 and 4.632"}, {"measurement": "Log2 reporter intensity values", "setting": "UCHL1; 3 at 1 μM", "result": "2.365 and 2.437 and 2.451"}, {"measurement": "Log2 reporter intensity values", "setting": "UCHL1; 3 at 4 μM", "result": "2.439 and 2.526 and 2.494"}, {"measurement": "IC50", "setting": "USP30", "result": "> 10", "unit": "µM"}, {"measurement": "IC50", "setting": "Cezanne1", "result": "> 10", "unit": "µM"}]}
{"smiles": "CC(=O)O/N=C1\\C(=O)N(Cc2cc(Cl)ccc2Cl)c2ccc(Cl)cc21", "note": "[LDN-57444, reference compound]", "values": [{"measurement": "IC50", "setting": "USP30", "result": "> 10", "unit": "µM"}, {"measurement": "IC50", "setting": "Cezanne1", "result": "> 10", "unit": "µM"}]}
